Data: patent publication US11986471B2, “Compounds and methods of use” (Tango Therapeutics, Inc., priority 2018, dated 2024)

What was measured:
PRMT5 [1] = target: T1, PRMT5 (Homo sapiens, UniProt O14744); experiment: PRMT5 IC50 assay in the presence of SAM as cofactor; format: biochemical
T1 construct: purchased Viva (custom protein)
How it was run: (§1)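 IC50 against PRMT5 determined with SAM as cofactor, with no cofactor, and with MTA as cofactor. Ki derived as IC50/1.5 for the SAM assay and IC50/13.5 for the MTA assay; SAM Ki to MTA Ki ratio also reported.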

PRMT5 [2] = target: T1, PRMT5; experiment: PRMT5 IC50 assay with no cofactor; format: biochemical
How it was run: as §1

PRMT5 [3] = target: T1, PRMT5; experiment: PRMT5 IC50 assay in the presence of MTA as cofactor; format: biochemical; details: for IC50: PRMT5, MTA as cofactor
How it was run: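 For the SAM-containing format, dividing IC50 by 1.5 yields Ki; for the MTA-containing format the divisor is 13.5. A third format without cofactor gives IC50 alone.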

HAP1 MTAP-intact = experiment: SDMA in-cell western assay, HAP1 MTAP-intact cell line; format: cell-based; details: Homo sapiens
How it was run: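 IC50 values come from SDMA in-cell western staining of HAP1 cells. The MTAP-intact line carries endogenous MTAP, while its MTAP-deleted counterpart lacks MTAP entirely. A selectivity ratio of at least 3 fold marks a compound as MTAP-selective.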

HAP1 MTAP-deleted = experiment: SDMA in-cell western assay, HAP1 MTAP-deleted cell line; format: cell-based; details: for IC50: Homo sapiens, HAP1 MTAP-deleted cell line; for MTAP Intact/Deleted Ratio: IC50 ratio HAP1 MTAP-intact / HAP1 MTAP-deleted
How it was run: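 Readout is cellular SDMA signal by in-cell western, with IC50 values derived from it. The cells are MTAP-null HAP1, matched to an isogenic MTAP-intact HAP1 line.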

[4] = ratio between the Ki in the presence of SAM and the Ki in the presence of MTA
[5] = ratio between Ki in the presence of SAM and Ki in the presence of MTA

T1 sequence (O14744 whole entry): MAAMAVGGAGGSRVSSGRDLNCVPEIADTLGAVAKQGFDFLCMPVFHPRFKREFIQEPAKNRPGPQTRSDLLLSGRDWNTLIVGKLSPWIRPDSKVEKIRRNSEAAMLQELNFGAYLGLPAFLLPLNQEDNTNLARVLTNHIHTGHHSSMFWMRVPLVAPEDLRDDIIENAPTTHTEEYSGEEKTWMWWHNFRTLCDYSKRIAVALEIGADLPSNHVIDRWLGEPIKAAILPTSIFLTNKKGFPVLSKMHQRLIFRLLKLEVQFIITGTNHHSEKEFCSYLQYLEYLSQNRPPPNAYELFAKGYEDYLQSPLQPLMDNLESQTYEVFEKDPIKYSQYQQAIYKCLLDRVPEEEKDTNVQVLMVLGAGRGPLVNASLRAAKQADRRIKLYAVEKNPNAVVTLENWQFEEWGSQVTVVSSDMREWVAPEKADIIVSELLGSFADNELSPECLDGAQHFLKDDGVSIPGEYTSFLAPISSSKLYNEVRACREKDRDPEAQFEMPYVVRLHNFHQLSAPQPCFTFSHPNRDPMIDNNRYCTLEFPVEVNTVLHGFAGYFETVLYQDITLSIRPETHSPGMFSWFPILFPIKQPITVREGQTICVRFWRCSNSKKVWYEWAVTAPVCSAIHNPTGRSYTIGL
T1 sequence (Q9BQA1 whole entry partner): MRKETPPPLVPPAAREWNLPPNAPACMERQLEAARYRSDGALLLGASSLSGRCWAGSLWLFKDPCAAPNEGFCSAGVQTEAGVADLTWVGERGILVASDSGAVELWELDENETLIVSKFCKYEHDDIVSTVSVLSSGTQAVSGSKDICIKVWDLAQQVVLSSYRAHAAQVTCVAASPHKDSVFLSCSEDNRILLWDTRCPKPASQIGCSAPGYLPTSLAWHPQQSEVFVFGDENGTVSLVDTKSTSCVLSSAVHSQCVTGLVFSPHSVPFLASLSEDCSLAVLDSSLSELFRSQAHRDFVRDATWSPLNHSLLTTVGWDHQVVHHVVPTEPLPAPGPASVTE

Compound	IC50 (PRMT5 [1]) [nM]	IC50 (PRMT5 [2]) [nM]	IC50 (PRMT5 [3]) [nM]	SAM/MTA Ratio (PRMT5 [3]; [4])	IC50 (HAP1 MTAP-intact) [nM]	IC50 (HAP1 MTAP-deleted) [nM]	MTAP Intact/Deleted Ratio (HAP1 MTAP-deleted)	IC50 (PRMT5 [2]; read-out: No Co-factor IC50) [nM]	SAM/MTA Ratio (PRMT5 [3]; [5])
Cc1ncoc1COc1ccc2c(c1)CCN(C[C@@H](O)CNC(=O)c1ccnc(NC3CC4(CCC4)C3)c1)C2 [Compound 609, (S)—N-(2-hydroxy-3-(6-((4-methyloxazol-5-yl)methoxy)-3,4-dihydroisoquinolin-2(1H)-yl)propyl)-2-(spiro[3.3]heptan-2-ylamino)isonicotinamide]	500 to 5000	500 to 5000	< 50	A (a Ki ratio greater than or equal to 10 fold between the Ki in the presence of SAM and the Ki in the presence of MTA)	1000 to 10000	< 1000	B* (an IC50 ratio greater than or equal to 3 fold but lower than 10 fold between the IC50 in the HAP1 MTAP-intact cell line and the HAP1 MTAP-deleted cell line)		
O=C(NC[C@H](O)CN1CCc2cc(OCc3cnco3)c(F)c(F)c2C1)c1ccnc(NC2CCC2)c1 [Compound 364, 2-(cyclobutylamino)-N-[(2S)-3-[7,8-difluoro-6-(oxazol-5-ylmethoxy)-3,4-dihydro-1H-isoquinolin-2-yl]-2-hydroxy-propyl]pyridine-4-carboxamide]	50 to 500		50 to 500		≥ 10000	1000 to 10000	C* (an IC50 ratio of less than 3 fold between the IC50 in the HAP1 MTAP-intact cell line and the HAP1 MTAP-deleted cell line)	≥ 5000	A (a Ki ratio greater than or equal to 10 fold between the Ki in the presence of SAM and the Ki in the presence of MTA)
CCCC(=O)N1CCC(Nc2cc(C(=O)NC[C@H](O)CN3CCc4c(ccc(OCc5cnco5)c4Cl)C3)ccn2)CC1 [Compound 442, (S)-2-((1-butyrylpiperidin-4-yl)amino)-N-(3-(5-chloro-6-(oxazol-5-ylmethoxy)-3,4-dihydroisoquinolin-2(1H)-yl)-2-hydroxypropyl)isonicotinamide]	50 to 500	500 to 5000	50 to 500	A (a Ki ratio greater than or equal to 10 fold between the Ki in the presence of SAM and the Ki in the presence of MTA)	≥ 10000	< 1000	A* (an IC50 ratio greater than or equal to 10 fold between the IC50 in the HAP1 MTAP-intact cell line and the HAP1 MTAP-deleted cell line)		
CC(=O)N1CCC(Nc2cc(C(=O)NC[C@H](O)CN3CCc4c(ccc(OCc5cnco5)c4C)C3)ncn2)CC1 [Compound 198, 6-[(1-acetyl-4-piperidyl)amino]-N-[(2S)-2-hydroxy-3-[5-methyl-6-(oxazol-5-ylmethoxy)-3,4-dihydro-1H-isoquinolin-2-yl]propyl]pyrimidine-4-carboxamide]	50 to 500		50 to 500		≥ 10000	1000 to 10000	C* (an IC50 ratio of less than 3 fold between the IC50 in the HAP1 MTAP-intact cell line and the HAP1 MTAP-deleted cell line)	≥ 5000	A (a Ki ratio greater than or equal to 10 fold between the Ki in the presence of SAM and the Ki in the presence of MTA)
O=C(NC[C@H](O)CN1CCc2c(ccc(OCc3cnco3)c2Br)C1)c1ccnc(NC2CCCC2)c1 [Compound 404, (S)—N-(3-(5-bromo-6-(oxazol-5-ylmethoxy)-3N-dihydroisoquinolin-2(1H)-yl)-2-hydroxypropyl)-2-(cyclopentylamino)isonicotinamide]	50 to 500		50 to 500		≥ 10000	≥ 10000	C* (an IC50 ratio of less than 3 fold between the IC50 in the HAP1 MTAP-intact cell line and the HAP1 MTAP-deleted cell line)	≥ 5000	A (a Ki ratio greater than or equal to 10 fold between the Ki in the presence of SAM and the Ki in the presence of MTA)
Cc1c(OCc2cnco2)ccc2c1CCN(C[C@@H](O)CNC(=O)c1ccnc(NC3CCN(C(=O)C(C)(C)C)CC3)c1)C2 [Compound 402, (S)—N-(2-hydroxy-3-(5-methyl-6-(oxazol-5-ylmethoxy)-3N-dihydroisoquinolin-2(1H)-yl)propyl)-2-((1-pivaloylpiperidin-4-yl)amino)isonicotinamide]	50 to 500		50 to 500		≥ 10000	1000 to 10000	B* (an IC50 ratio greater than or equal to 3 fold but lower than 10 fold between the IC50 in the HAP1 MTAP-intact cell line and the HAP1 MTAP-deleted cell line)	500 to 5000	A (a Ki ratio greater than or equal to 10 fold between the Ki in the presence of SAM and the Ki in the presence of MTA)
O=C(NC[C@H](O)CN1CCc2c(ccc(OCc3cnco3)c2Cl)C1)c1ccnc(NC2CCC(F)(F)C2)c1 (stereo partly drawn) [Compound 316, N—((S)-3-(5-chloro-6-(oxazol-5-ylmethoxy)-3,4-dihydroisoquinolin-2(1H)-yl)-2-hydroxypropyl)-2-((3,3-difluorocyclopentyl)amino)isonicotinamide]	50 to 500		50 to 500		≥ 10000	≥ 10000	C* (an IC50 ratio of less than 3 fold between the IC50 in the HAP1 MTAP-intact cell line and the HAP1 MTAP-deleted cell line)	≥ 5000	A (a Ki ratio greater than or equal to 10 fold between the Ki in the presence of SAM and the Ki in the presence of MTA)
Cc1ncoc1COc1ccc2c(c1)CCN(C[C@@H](O)CNC(=O)c1cc(NC3CCC3)nc(N3CCN(C(C)(C)C)CC3)c1)C2 [Compound 403, 2-(4-tert-butylpiperazin-1-yl)-6-(cyclobutylamino)-N-[(2S)-2-hydroxy-3-{6-[(4-methyl-1,3-oxazol-5-yl)methoxy]-1,2,3,4-tetrahydroisoquinolin-2-yl}propyl]pyridine-4-carboxamide]	50 to 500		50 to 500		< 1000	≥ 10000	C* (an IC50 ratio of less than 3 fold between the IC50 in the HAP1 MTAP-intact cell line and the HAP1 MTAP-deleted cell line)	500 to 5000	A (a Ki ratio greater than or equal to 10 fold between the Ki in the presence of SAM and the Ki in the presence of MTA)
CC(C)(C)N1CCN(c2cc(C(=O)NC[C@H](O)CN3CCc4c(ccc(OCc5cnco5)c4Cl)C3)cc(NC3CCC3)n2)CC1 [Compound 319, (S)-2-(4-(tert-butyl)piperazin-1-yl)-N-(3-(5-chloro-6-(oxazol-5-ylmethoxy)-3N-dihydroisoquinolin-2(1H)-yl)-2-hydroxypropyl)-6-(cyclobutylamino)isonicotinamide]	50 to 500		50 to 500		≥ 10000	≥ 10000	C* (an IC50 ratio of less than 3 fold between the IC50 in the HAP1 MTAP-intact cell line and the HAP1 MTAP-deleted cell line)	500 to 5000	A (a Ki ratio greater than or equal to 10 fold between the Ki in the presence of SAM and the Ki in the presence of MTA)
Cn1nccc1COc1cc(F)c2c(c1Cl)CCN(C[C@@H](O)CNC(=O)c1ccnc(NC3CCC3)c1)C2 [Compound 282, N-[(2S)-3-[5-chloro-8-fluoro-6-[(2-methylpyrazol-3-yl)methoxy]-3,4-dihydro-1H-isoquinolin-2-yl]-2-hydroxy-propyl]-2-(cyclobutylamino)pyridine-4-carboxamide]	500 to 5000		500 to 5000		≥ 10000	≥ 10000	C* (an IC50 ratio of less than 3 fold between the IC50 in the HAP1 MTAP-intact cell line and the HAP1 MTAP-deleted cell line)	≥ 5000	A (a Ki ratio greater than or equal to 10 fold between the Ki in the presence of SAM and the Ki in the presence of MTA)
O=C(NC[C@H](O)CN1CCc2c(ccc(OCc3cnco3)c2Cl)C1)c1ccnc(N[C@H]2CC[C@H](C(F)(F)F)CC2)c1 [Compound 483, N—((S)-3-(5-chloro-6-(oxazol-5-ylmethoxy)-3N-dihydroisoquinolin-2(1H)-yl)-2-hydroxypropyl)-2-(((1RNS)-4-(trifluoromethyl)cyclohexy)amino)isonicotinamide]	500 to 5000	≥ 5000	50 to 500	A (a Ki ratio greater than or equal to 10 fold between the Ki in the presence of SAM and the Ki in the presence of MTA)	≥ 10000	1000 to 10000	C* (an IC50 ratio of less than 3 fold between the IC50 in the HAP1 MTAP-intact cell line and the HAP1 MTAP-deleted cell line)		
CC(=O)N1CCC(Nc2cc(C(=O)NC[C@H](O)CN3CCc4c(ccc(OCc5cnco5)c4Cl)C3)ccn2)CC1 [Compound 429]	50 to 500	500 to 5000	50 to 500	A (a Ki ratio greater than or equal to 10 fold between the Ki in the presence of SAM and the Ki in the presence of MTA)	≥ 10000	1000 to 10000	B* (an IC50 ratio greater than or equal to 3 fold but lower than 10 fold between the IC50 in the HAP1 MTAP-intact cell line and the HAP1 MTAP-deleted cell line)		
